Test results from patent US7829297B2, “Treatment of cancers expressing p95 ErbB2” (GlaxoSmithKline LLC, priority 2003, dated 2010).

Legend:
BT474 cells = assay: Proliferation of BT474 cells; type: cell-based, human
ErbB3 = ErbB3 phosphorylation in BT474 tumor xenografts (IP Western blot); details: 100 mg/kg/dose, compared with vehicle
Description: Tumors were removed 4 hours after the last dose, frozen in liquid Nitrogen, and stored at −80° C. until analysis. For the terminal biopsy, mice were euthanized with CO2 inhalation. Cell extracts were prepared by homogenization in RIPA buffer at 4° C.
As shown in FIG. 6a-6c, the activation-state of EGFR, p185^ErbB2, p95^ErbB2, and ErbB3 was assessed by IP Western blot.

p95^ErbB2 [1] = assay: Western blot of p95ErbB2 in BT474 cells; type: cell-based, human
Description: (§1) Equal amounts of protein were separated by SDS-PAGE and then ErbB2, p95^ErbB2, pTyr/p95^ErbB2, and pTyr/ErbB2 steady state protein levels were assessed by Western blot. […] Along the left side of the lanes, the uppermost arrow indicates p185; lower arrowhead indicates p95. Molecular weights are indicated on the right side of the figure.

[2] = system: solid tumor overexpressing or expressing activated EGFR or ErbB2; assay: Open label, multi-dose clinical trial in subjects with cancer; type: in vivo, human
[3] = system: MAPK-Erk1/2 and PI3K-AKT pathways, cyclin D1/2; assay: Downstream signaling in BT474 tumor xenografts (Western blot); type: in vivo, mice
Description: Equal amounts of protein from tumor xenograft whole cell extracts were separated by SDS-PAGE and steady state protein levels of total and phosphorylated forms Erk1/2 and AKT were assessed by Western blot. Cyclin D1/2 steady state protein levels were also determined.

p185^ErbB2 [4] = target: T1, p185^ErbB2 (Homo sapiens, UniProt P04626); assay: Western blot of p185ErbB2 in BT474 cells; type: cell-based; parameters: The full-length ErbB2 receptor (p185^ErbB2); endogenous in cells; host or cells: BT474
T1 sequence (P04626 23-1255): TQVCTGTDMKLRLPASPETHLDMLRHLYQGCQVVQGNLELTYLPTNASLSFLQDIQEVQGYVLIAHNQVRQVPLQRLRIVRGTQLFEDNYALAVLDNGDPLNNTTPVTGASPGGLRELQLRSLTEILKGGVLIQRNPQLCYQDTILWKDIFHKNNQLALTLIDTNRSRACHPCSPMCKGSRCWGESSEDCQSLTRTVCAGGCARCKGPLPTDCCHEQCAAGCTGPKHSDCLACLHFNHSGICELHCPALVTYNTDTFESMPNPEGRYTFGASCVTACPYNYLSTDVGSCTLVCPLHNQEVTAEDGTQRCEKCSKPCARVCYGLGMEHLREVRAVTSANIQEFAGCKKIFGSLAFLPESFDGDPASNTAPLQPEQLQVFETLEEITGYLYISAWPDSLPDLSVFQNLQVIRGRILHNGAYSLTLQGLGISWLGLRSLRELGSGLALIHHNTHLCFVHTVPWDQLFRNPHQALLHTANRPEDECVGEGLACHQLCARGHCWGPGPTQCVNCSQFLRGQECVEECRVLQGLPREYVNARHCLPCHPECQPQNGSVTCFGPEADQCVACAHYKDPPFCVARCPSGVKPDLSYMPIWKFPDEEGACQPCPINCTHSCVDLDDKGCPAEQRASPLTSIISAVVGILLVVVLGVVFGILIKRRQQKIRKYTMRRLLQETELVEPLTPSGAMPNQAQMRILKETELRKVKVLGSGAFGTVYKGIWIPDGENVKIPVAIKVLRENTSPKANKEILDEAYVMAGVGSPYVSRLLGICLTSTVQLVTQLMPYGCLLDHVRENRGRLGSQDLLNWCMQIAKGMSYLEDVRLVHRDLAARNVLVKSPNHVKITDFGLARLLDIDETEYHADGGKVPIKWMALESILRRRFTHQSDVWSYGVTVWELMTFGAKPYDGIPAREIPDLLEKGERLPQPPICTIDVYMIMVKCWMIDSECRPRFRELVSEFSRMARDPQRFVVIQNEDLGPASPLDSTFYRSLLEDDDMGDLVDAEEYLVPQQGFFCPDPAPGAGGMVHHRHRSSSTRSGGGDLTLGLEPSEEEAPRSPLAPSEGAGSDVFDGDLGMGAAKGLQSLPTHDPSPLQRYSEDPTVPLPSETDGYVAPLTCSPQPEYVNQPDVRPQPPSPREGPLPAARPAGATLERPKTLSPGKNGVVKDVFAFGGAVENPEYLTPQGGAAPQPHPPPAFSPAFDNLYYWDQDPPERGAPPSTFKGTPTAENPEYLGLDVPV
Description: as §1

p185^ErbB2 [5] = target: T1, p185^ErbB2; assay: Western blot of phospho-p185ErbB2 in Hb4a cells; details: parental Hb4a cells, 5 μM, 24 hours
Erk1/2 and AKT = assay: Activation of Erk1/2 and AKT by EGF and heregulin in BT474 cells; type: cell-based, human; details: 1 μM
p185^ErbB2 [6] = target: T1, p185^ErbB2; assay: Western blot of phospho-p185ErbB2 in S1 cells; details: 5 μM, 24 hours
p95 = assay: Western blot of phospho-p95 in S1 cells; details: 5 μM, 24 hours
p95^ErbB2 [7] = assay: p95ErbB2 in BT474 tumor xenografts (Western blot); type: in vivo, mice
Text: (§2) BT474 tumor xenografts were established in CD-1 nude mice.

p185^ErbB2 [8] = target: T1, p185^ErbB2; assay: p185ErbB2 in BT474 tumor xenografts (Western blot); type: in vivo, mice; parameters: The full-length ErbB2 receptor (p185^ErbB2); from tissue; host or cells: BT474 tumour xenografts in mice; details: GW572016 100 mg/kg/dose PO or trastuzumab IP
Text: as §2

[9] = 24 hours, 0.5 μM GW572016 or 10 μg/ml trastuzumab
[10] = 11 breast cancer subjects previously treated with trastuzumab
[11] = GW572016 or trastuzumab (10 mg/kg)

CS(=O)(=O)CCNCc1ccc(-c2ccc3ncnc(Nc4ccc(OCc5cccc(F)c5)c(Cl)c4)c3c2)o1 [GW572016, N-{3-Chloro-4-[(3-fluorobenzyl)oxy]phenyl}-6-[5-({[2-(methylsulfonyl)ethyl]amino}methyl)-2-furyl]-4-quinazolinamine]
proliferation of BT474 cells (BT474 cells): inhibited | reversal of antiproliferative effect in the presence of EGF (BT474 cells; BT474 cells): not completely reversed | effect of prolonged incubation on protection by heregulin (BT474 cells; BT474 cells, 1 μM, prolonged incubation (data not shown)): abrogated the protective effects of heregulin | reversal of inhibitory effects by addition of heregulin (BT474 cells; BT474 cells, 72 hour assay): partially reversed | ErbB3 tyrosine phosphorylation (ErbB3): markedly inhibited | phosphorylation of p95ErbB2 in presence and absence of HRG and EGF (p95^ErbB2 [1]; 1 μM, 16 hours, ErbB2 IP): inhibited | HRG-induced p95ErbB2 phosphorylation (p95^ErbB2 [1]; 1 μM, 16 hours, HRG 5 nM 15 min, ErbB3 IP): partially blocked | tyrosine phosphorylation of p95ErbB2 (anti-pTyr mAb) (p95^ErbB2 [1]; [9]): inhibited | Partial Responses among breast cancer subjects [2, 10]: three | Stable Disease among breast cancer subjects [2, 10]: four | breast cancer subjects exhibiting responses, of eleven ([2]; 11 breast cancer subjects, all previously treated with trastuzumab, oral ditosylate salt, daily): seven | response of bone metastases ([2]; Patient No. 361, 1200 mg/day): did not respond | time to disappearance of all subcutaneous nodules ([2]; Patient No. 361, 1200 mg/day): ≤ 28 days | anterior abdominal wall nodules ([2]; Patient No. 372, 1200 mg/day): improved | decrease in two right breast masses ([2]; Patient No. 372, 1200 mg/day, August to October 2002): 70% | stable disease, number of subjects ([2]; adenocarcinoma of unknown primary origin): 1 | stable disease, number of subjects ([2]; colorectal cancer): 2 | stable disease, number of subjects ([2]; granular cell cancer): 1 | stable disease, number of subjects ([2]; head and neck cancer): 1 | total responses out of 33 subjects ([2]; initial 33 subjects with validated responses, all tumor types): 15 | stable disease, number of subjects ([2]; lung cancer): 1 | stable disease, number of subjects ([2]; ovarian cancer): 2 | total steady state protein levels of Erk1/2 and AKT [3]: without affecting | cyclin D steady state protein levels [3, 11]: inhibited | p-AKT steady state protein levels [3, 11]: inhibited | p-Erk1/2 steady state protein levels [3, 11]: inhibited | phosphorylation of p185ErbB2 in presence and absence of HRG and EGF (p185^ErbB2 [4]; 1 μM, 16 hours, ErbB2 IP): inhibited | p185ErbB2 phosphorylation (anti-pTyr Western blot) (p185^ErbB2 [4]; 1 μM, 24 hours): inhibited | steady-state p185ErbB2 protein levels (anti-ErbB2 ECD mAb) (p185^ErbB2 [4]; [9]): did not vary | tyrosine phosphorylation of p185ErbB2 (anti-pTyr mAb) (p185^ErbB2 [4]; [9]): inhibited | phosphorylation of p185ErbB2 (p185^ErbB2 [5]): inhibited | EGF-induced increase of p-Erk1/2 steady state protein levels (Erk1/2 and AKT; EGF 50 ng/ml 15 minutes): blocked | HRG-induced AKT phosphorylation (Erk1/2 and AKT; HRG): partially inhibited | p185ErbB2 phosphorylation (p185^ErbB2 [6]): inhibited | p95 phosphorylation (p95): inhibited | steady state protein levels of total p95ErbB2 (p95^ErbB2 [7]; GW572016 100 mg/kg/dose PO or trastuzumab IP): unchanged | phospho-p95ErbB2 steady state protein levels (p95^ErbB2 [7]; GW572016 100 mg/kg/dose PO, 100 mg/kg): markedly inhibited | Y1248 phosphorylation in p95ErbB2 (p95^ErbB2 [7]; GW572016 100 mg/kg/dose or trastuzumab): inhibited | phospho-p185ErbB2 steady state protein levels (p185^ErbB2 [8]): inhibited | steady state protein levels of total p185ErbB2 (p185^ErbB2 [8]): unchanged
